# Experimental data reported in patent publication US20100278789A1, “METHODS OF GENERATING EXPANDED AND RE-DIFFERENTIATED ADULT ISLET BETA CELLS CAPABLE OF PRODUCING INSULIN” (priority 2007, published 2010).
# Columns and labels:
# [1] = test system: eGFP+ human islet cells; assay: Insulin immunostaining of eGFP+ islet cells incubated with diazoxide after viral infection; type: cell-based; design: dose or concentration left out as unconfirmed; conditions: diazoxide following viral infection, days 5-6 of culture
# [2] = test system: cultured human islet cells; assay: Immunoblotting for cleaved PARP (apoptosis) in islet cells; type: cell-based
# Experimental: (§1) HES1 inhibition and lineage tracing: HES1 shRNA ([…])—SEQ ID NO: 7 and a non-target shRNA, cloned in pLKO.1 lentiviral vector, were obtained from the RNAi Consortium (Sigma-Aldrich). Virus was produced in 293T cells following cotransfection with the pCMVdR8.91 and pMD2.G packaging plasmids. The culture medium was harvested 48 hours later. Islet cells cultured for 1-2 days were washed with PBS and infected at MOI 2.5:1 in CMRL 1066 medium containing 8 μg/ml polybrene overnight. The medium was then replaced with regular culture medium. Four days after infection, the cells were selected for puromycin resistance (1 μg/ml) for 3 days. Two weeks after infection the cells were harvested for further analysis. Lineage tracing was performed using the RIP-Cre and a pTrip CMV-loxP-DsRed2-loxP-eGFP viruses as described herein below. Briefly, islet cells cultured for 1-2 days were infected with a 1:1:1 mixture of the 3 viruses (shRNA+RIP-Cre+pTrip CMV-loxP-DsRed2-loxP-eGFP) at a total MOI 4:1. Selection and further analysis were carried out as above.
# (§2) Immunoblotting: Total cellular protein was extracted in 0.5% NP40 containing a protease inhibitor cocktail (Roche). Protein concentration was determined by the BCA method (Pierce, Rockford, Ill.). […] Loading was monitored using goat-anti-beta-actin (Santa Cruz, 1:1000). […]
# [3] = test system: Beta cell derived labeled cells at P5; assay: Insulin expression (RT-PCR) in beta cell derived labeled cells treated with gamma-secretase inhibitor; type: cell-based, human; conditions: 300 nM, 4 days, vs untreated or DMSO
# Experimental: Beta cell derived labeled cells at P5 treated for 4 days with 300 nM gamma-secretase inhibitor (S,S)-2-[2-(3,5-difluorophenyl)acetylamino]-N-(5-methyl-6-oxo-6,7-dihydro-5H-dibenzo [b,d]azepin-7-yl)propionamide (DBZ). Control cells were either untreated, or treated with DMSO (solvent). Medium with compound was changed every 48 hours.
# RT-PCR analyses: As described for Example 1.
# [4] = test system: cultured human islet cells; assay: Insulin immunostaining of islet cells and eGFP+ cells after HES1 shRNA infection; type: cell-based
# Experimental: as §1
# (§3) Immunofluorescence: Cells were plated in 24-well plates on sterilized coverslips and fixed in 4% paraformaldehyde. Cells were permeabilized with 0.25% NP40 for 10 minutes and blocked for 10 minutes at room temperature in 1% bovine serum albumin, 10% FBS, and 0.2% saponin. […]
# [5] = test system: HES1; assay: Screening of 4 HES1 shRNA sequences in 293T cells, HES1 immunoblotting; type: cell-based
# Experimental: Immunoblotting: Total cellular protein was extracted in 0.5% NP40 containing a protease inhibitor cocktail (Roche). Protein concentration was determined by the BCA method (Pierce, Rockford, Ill.). 70 μg protein were separated on 12% sodium dodecyl sulphate-polyacrylamide gels and electroblotted onto PDF membranes. The membranes were incubated with rabbit-anti-HES1 (1:1000) or rabbit-anti-PARP (Cell Signaling, 1:1000). Loading was monitored using goat-anti-beta-actin (Santa Cruz, 1:1000). The bound antibody was visualized with the appropriate horseradish peroxidase-conjugated anti-IgG (Jackson) and SuperSignal West Pico Chemiluminescent Substrate (Pierce). Cells treated with 1 μm staurosporine for 6 hours were used as positive control for the PARP blot.
# Inhibition of HES1 expression prevents induction of beta-cell replication: To further correlate the induction of beta-cell replication with HES1 upregulation, HES1 induction during the initial weeks of culture was inhibited using shRNA. […] Isolated human islets were dissociated, and the cells were infected with a lentivirus encoding HES1 shRNA before culture under standard conditions. Selection for drug resistance allowed elimination of uninfected cells. Cells infected with a non-target shRNA lentivirus and selected under similar conditions served as control. […]
# [6] = test system: HES1; assay: Immunoblotting for HES1 in islet cells infected at culture initiation with HES1 shRNA virus; type: cell-based, human; conditions: islet cells infected after 1-2 days of culture, analysed 14 days after infection
# Experimental: as §1, §2
# [7] = test system: dedifferentiated human islet cells expanded in culture; assay: Redifferentiation of dedifferentiated expanded human islet cells by HES1 shRNA (immunoblotting, RT-PCR, insulin ELISA, morphology); type: cell-based
# Experimental: Human islet cells were cultured for 4-5 weeks as described for Example 1. They were then infected with lentiviruses expressing HES1 (SEQ ID NO: 7) or nontarget shRNAs. Nine days following infection the cells were analyzed as described for Example 1. Primers used for RT-PCR analysis are described in Table 1, herein above, […]
# [8] = test system: sorted eGFP+ cells derived from beta cells; assay: HES1 shRNA in sorted eGFP+ cells expanded 7 population doublings, qRT-PCR and morphology; type: cell-based, human
# Experimental: Virus was produced in 293T cells following cotransfection with the pCMVdR8.91 and pMD2.G packaging plasmids. The culture medium was harvested 48 hours later. […] They were then infected with HES1 or nontarget shRNA viruses, and 4 days later trypsinized and shifted to serum free medium (SFM). RNA was extracted following 4 more days and analyzed by qRT-PCR.
# RNA analyses: As described for Example 1.
# [9] = test system: cultured human islet cells; assay: qPCR analysis of RNA from islet cells 14 days after HES1 shRNA infection; type: cell-based; conditions: 14 days after infection
# Experimental: as §1
# RNA analyses: Total RNA was extracted using High Pure RNA isolation kit (Roche). cDNA was synthesized using SuperScript III (Invitrogen). qPCR was performed using a Prism 7300 ABI Real Time PCR System (Applied Biosystems). Relative quantitative analysis was performed according to the comparative CT method by using the arithmetic formula 2̂^−(ΔΔct). The cDNA levels were normalized to human ribosomal protein P0 (RPLP0) cDNA.
# [10] = test system: cultured human islet cells; assay: Replication of cultured islet cells (BrdU incorporation, Ki67 staining) after HES1 shRNA infection; type: cell-based; conditions: 14 days after infection
# Experimental: as §1, §3
# [11] = cells cultured 4-5 weeks, 9 days after infection, immunoblotting
molecule,measurement,setting,value
CC1=NS(=O)(=O)c2cc(Cl)ccc2N1 [diazoxide],fraction of eGFP+ cells that were insulin-positive,[1],84.8±5.8%
"CN[C@@H]1C[C@H]2O[C@@](C)([C@@H]1OC)n1c3ccccc3c3c4c(c5c6ccccc6n2c5c31)C(=O)NC4 [staurosporin, staurosporine, reference compound]","PARP cleavage, immunoblotting (positive control)","[2]; uninfected cells, 1 μm staurosporine for 6 hours",cleaved PARP
"C[C@H](NC(=O)Cc1cc(F)cc(F)c1)C(=O)N[C@@H]1C(=O)N(C)c2ccccc2-c2ccccc21 [gamma secretase inhibitor, (S,S)-2-[2-(3,5-difluorophenyl)acetylamino]-N-(5-methyl-6-oxo-6,7-dihydro-5H-dibenzo [b,d]azepin-7-yl)propionamide]",insulin expression,[3],increase
"TGGCCAGTTTGCTTTCCTCAT (chemistry not given here) [HES1 shRNA, HES1 shRNA cloned in pLKO.1 lentiviral vector, obtained from the RNAi Consortium (Sigma-Aldrich)]","fraction of insulin-positive cells among eGFP+ cells, higher",[4],3 fold
same,"number of insulin-positive cells, higher than control virus",[4]; p<0.016,4 fold
same,"efficiency among 4 HES1 shRNA sequences, based on reduction in HES1 protein levels",[5],most efficient
same,"HES1 protein levels, lower compared with cells infected with the control virus",[6],up to 6 ×
same,insulin expression by insulin ELISA and immunostaining,[7]; 9 days after infection,increase
same,NEUROD1 transcripts,"[7]; 9 days after infection, RT-PCR",significant increase
same,PDX1 transcripts,"[7]; 9 days after infection, RT-PCR",significant increase
same,insulin transcripts,"[7]; 9 days after infection, RT-PCR",significant increase
same,"p57, RNA analysis","[7]; 9 days after infection, RT-PCR",increase
same,cellular HES1 protein levels,[7]; [11],decrease
same,p57 levels (protein),[7]; [11],increase
same,morphological change,[7]; cells expressing HES1 shRNA,tended to form clusters
same,"upregulation of transcripts encoding insulin, PDX1, NEUROD1, IAPP, and PC1","[8]; eGFP+ vs eGFP− cells, qRT-PCR",occurred preferentially in eGFP^+ cells
same,"induction of beta-cell transcripts, combination of SFM with HES1 shRNA","[8]; shRNA infection, 4 days later shifted to SFM, RNA after 4 more days",pronounced additive effect
same,"morphological changes in response to HES1 shRNA, eGFP+ compared with eGFP− cells",[8]; sorted cells,much more pronounced in eGFP^+ cells
same,"insulin transcripts, lower compared with primary islets",[9],20 fold
same,levels of NOTCH transcripts,[9],did not affect
same,levels of PDX1 and NEUROD1 transcripts relative to primary islets,[9],comparable to those in primary islets
same,"insulin transcripts, higher compared with cells infected with control virus",[9]; p<0.01,5.7 fold
same,"p57 transcripts, higher than in cells infected with control virus",[9]; p<0.04,5.7 fold
same,"PDX1 transcript levels, higher than control virus",[9]; p<0.05,5.6 fold
same,"NEUROD1 transcript levels, higher than control virus",[9]; p<5.45×10^−5,3.7 fold
same,"replication rate, Ki67 staining in eGFP+ cells derived from beta cells",[10],lower replication rate
same,"cell proliferation, staining for BrdU incorporation",[10]; compared with control vector,diminished cell proliferation
same,"cell apoptosis, immunoblotting for cleaved PARP","[2]; HES1 shRNA virus vs non-target virus, 14 days after infection",did not correlate with an increase in cell apoptosis
